# Measurements reported in patent US9402842B2, “Synthesis and use of dual tyrosyl-DNA phosphodiesterase I (Tdp1)—topoisomerase I (Top1) inhibitors” (Purdue Research Foundation, priority 2012, dated 2016).
# Counter-ions that a name gives are not always drawn. Like-named read-outs stand apart in the source and are kept apart here.
# Experiments:
# HCT-116 = assay: NCI screen cytotoxicity, colon HCT-116; details: read-out: Cytotoxicity (GI50 in μM) colon HCT-116; 50% growth inhibition
# MDA-MB-435 = assay: NCI screen cytotoxicity, breast MDA-MB-435; details: read-out: Cytotoxicity (GI50 in μM) breast MDA-MB-435; 50% growth inhibition
# SF-539 = assay: NCI screen cytotoxicity, CNS SF-539; details: read-out: Cytotoxicity (GI50 in μM) CNS SF-539; 50% growth inhibition
# SN12C = assay: NCI screen cytotoxicity, renal SN12C; details: read-out: Cytotoxicity (GI50 in μM) renal SN12C; 50% growth inhibition
# recombinant human Tdp1 = recombinant human Tdp1 (Homo sapiens (Human), UniProt Q9NUW8); assay: Gel-based assay measuring the inhibition of recombinant Tdp1; format: biochemical; details: for IC50: read-out: Tdp1 (semiquantitative IC50 scale)
# Description: Tdp1 inhibitory activity was measured by the drug's ability to inhibit the hydrolysis of the phosphodiester linkage between tyrosine and the 3′-end of the DNA substrate, and to prevent the generation of an oligonucleotide with a free 3′-phosphate (N14P). Therefore, the disappearance of the gel band for N14P indicated Tdp1 inhibition.
# Gel-based Assay Measuring the Inhibition of Recombinant Tdp1.
# A 5′-[^32P]-labeled single-stranded DNA oligonucleotide containing a 3′-phosphotyrosine (N14Y) was generated as described by Dexheimer et al. The DNA substrate was then incubated with 5 pM recombinant Tdp1 in the absence or presence of inhibitor for 15 min at room temperature in a buffer containing 50 mM Tris HCl, pH 7.5, 80 mM KCl, 2 mM EDTA, 1 mM DTT, 40 μg/ml BSA and 0.01% Tween-20. […] Gel images were scanned using a Typhoon 8600 (GE Healthcare) and densitometric analyses were performed using the ImageQuant software (GE Healthcare).
# [1] = tested on: all human cancer cell lines successfully tested; assay: NCI screen, mean graph midpoint (MGM) for growth inhibition; format: cell-based; details: for GI50: read-out: MGM GI50
# HOP-62 = assay: NCI screen cytotoxicity, lung HOP-62; details: read-out: Cytotoxicity (GI50 in μM) lung HOP-62; 50% growth inhibition
# DU-145 = assay: NCI screen cytotoxicity, prostate DU-145; details: read-out: Cytotoxicity (GI50 in μM) prostate DU-145; 50% growth inhibition
# UACC-62 = assay: NCI screen cytotoxicity, melanoma UACC-62; details: read-out: Cytotoxicity (GI50 in μM) melanoma UACC-62; 50% growth inhibition
# OVCAR-3 = assay: NCI screen cytotoxicity, ovarian OVCAR-3; details: read-out: Cytotoxicity (GI50 in μM) ovarian OVCAR-3; 50% growth inhibition
# human recombinant Top1 = human recombinant Top1 (Homo sapiens (Human), UniProt P11387); assay: Topoisomerase I-mediated DNA cleavage reactions; set-up: Top1 inhibition (text of part A): key to the marks not given beside the values; details: for Top1, compound-induced DNA cleavage due to Top1 inhibition: semiquantitative scale relative to 1 μM camptothecin (90) or MJ-III-65 (91)
# [2] = tested on: single-stranded DNA substrate; assay: Surface plasmon resonance, binding to single-stranded DNA substrate; details: SPR
# [3] = Homo sapiens, read-out: MGM (μM)
# [4] = mean graph midpoint for growth inhibition of all human cancer cell lines successfully tested, read-out: MGM
# Chain of recombinant human Tdp1 (Q9NUW8 whole entry): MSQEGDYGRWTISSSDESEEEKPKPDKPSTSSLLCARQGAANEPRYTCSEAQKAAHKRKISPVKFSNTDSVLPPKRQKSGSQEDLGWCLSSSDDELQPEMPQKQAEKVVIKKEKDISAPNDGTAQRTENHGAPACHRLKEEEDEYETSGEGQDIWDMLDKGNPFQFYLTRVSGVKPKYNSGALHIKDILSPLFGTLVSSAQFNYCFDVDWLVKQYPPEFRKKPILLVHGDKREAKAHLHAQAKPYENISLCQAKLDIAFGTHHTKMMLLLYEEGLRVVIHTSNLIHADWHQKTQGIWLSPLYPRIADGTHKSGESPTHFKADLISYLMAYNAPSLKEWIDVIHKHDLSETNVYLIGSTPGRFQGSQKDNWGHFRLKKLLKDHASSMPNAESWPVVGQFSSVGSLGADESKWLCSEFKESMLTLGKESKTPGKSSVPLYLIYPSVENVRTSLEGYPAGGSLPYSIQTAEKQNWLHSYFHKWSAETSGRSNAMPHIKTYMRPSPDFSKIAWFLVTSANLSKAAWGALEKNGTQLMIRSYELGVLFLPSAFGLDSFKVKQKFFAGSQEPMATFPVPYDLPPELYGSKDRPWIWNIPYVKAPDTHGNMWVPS
# Chain of human recombinant Top1 (P11387 whole entry): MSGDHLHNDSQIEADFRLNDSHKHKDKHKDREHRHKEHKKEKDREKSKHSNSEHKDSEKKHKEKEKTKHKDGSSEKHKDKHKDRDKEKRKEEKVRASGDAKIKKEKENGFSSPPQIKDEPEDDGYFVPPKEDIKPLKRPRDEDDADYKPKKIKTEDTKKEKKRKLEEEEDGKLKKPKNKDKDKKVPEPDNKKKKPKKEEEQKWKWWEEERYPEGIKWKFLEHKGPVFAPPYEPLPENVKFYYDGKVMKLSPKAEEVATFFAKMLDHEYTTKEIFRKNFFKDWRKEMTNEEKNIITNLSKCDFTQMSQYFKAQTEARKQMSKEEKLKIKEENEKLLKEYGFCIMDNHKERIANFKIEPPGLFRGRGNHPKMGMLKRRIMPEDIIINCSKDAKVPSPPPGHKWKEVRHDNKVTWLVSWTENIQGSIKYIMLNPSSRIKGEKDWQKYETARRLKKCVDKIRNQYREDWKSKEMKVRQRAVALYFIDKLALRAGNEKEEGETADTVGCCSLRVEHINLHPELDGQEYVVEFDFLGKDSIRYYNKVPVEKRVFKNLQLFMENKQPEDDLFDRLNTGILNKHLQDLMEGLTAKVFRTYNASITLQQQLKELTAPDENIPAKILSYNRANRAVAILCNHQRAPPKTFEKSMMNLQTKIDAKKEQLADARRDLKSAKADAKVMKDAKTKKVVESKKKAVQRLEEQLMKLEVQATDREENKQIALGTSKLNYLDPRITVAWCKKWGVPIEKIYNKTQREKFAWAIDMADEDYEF
Molecule,GI50 (HCT-116) [µM],GI50 (MDA-MB-435) [µM],GI50 (SN12C) [µM],"IC50 [1, 3] [µM]",GI50 (HOP-62) [µM],GI50 (DU-145) [µM],GI50 (UACC-62) [µM],GI50 (OVCAR-3) [µM],"Top1, compound-induced DNA cleavage due to Top1 inhibition (human recombinant Top1)",also measured
"Cl.NCCCn1c2c(c3ccc(NCC(=O)O)cc3c1=O)C(=O)c1ccccc1-2 [Compound 43 of (B), 2-((6-(3-Aminopropyl)-5,11-dioxo-6,11-dihydro-5H-indeno[1,2-c]isoquinolin-3-yl)amino)acetic Acid Hydrochloride]",0.33,1.14,0.49,0.87 ± 0.014,0.65,1.51,0.72,1.6,0,GI50 (SF-539): 1.79 µM; IC50 (recombinant human Tdp1; determined by duplicate): 1000 to 12000 nM
"COC(=O)C(=O)Nc1ccc2c3c(n(CCCN)c(=O)c2c1)-c1ccccc1C3=O [Compound 22 of (B), Methyl 2-[(6-(3-Aminopropyl)-5,11-dioxo-6,11-dihydro-5H-indeno[1,2-c]isoquinolin-3-yl)amino]-2-oxoacetate]",,,,1.86 ± 0.38,,,,,0,
"COc1ccc2c(c1)C(=O)c1c-2n(CCCN)c(=O)c2cc(N)ccc12 [Compound 89 of (B), 3-Amino-6-(3-aminopropyl)-5,6-dihydro-9-methoxy-5,11-dioxo-11H-indeno[1,2-c]isoquinoline Dihydrochloride]",,,,0.04,,,,,,IC50 (recombinant human Tdp1; determined by duplicate): 1000 to 12000 nM
"COC(=O)CCCC(=O)Nc1ccc2c3c(n(CCCN)c(=O)c2c1)-c1ccccc1C3=O [Compound 25 of (B), Methyl 5-[(6-(3-Aminopropyl)-5,11-dioxo-6,11-dihydro-5H-indeno[1,2-c]isoquinolin-3-yl)amino]-5-oxopentanoate]",,,,1.09,,,,,0,IC50 (recombinant human Tdp1; determined by duplicate): 37000 to 111000 nM
"(6-Methyl-5,11-dioxo-6,11-dihydro-5H-indeno[1,2-c]isoquinolin-3-yl)-carbamic Acid [Compound 14 of (B)]",,,,,,,,,++,binding to the single-stranded DNA substrate [2]: did not bind
O=C1c2ccccc2-c2c1c1ccc([N+](=O)[O-])cc1c(=O)n2CCCO [Compound 63 of (B)],0.19,1.97,0.47,0.89 ± 0.22,,0.43,0.31,0.87,,
"N-(6-(5,11-Dioxo-5H-indeno[1,2-c]isoquinolin-6(11H)hexyl)-methanesulfonamide [Compound 84]",,,,,,,,,,"IC50 [1, 4]: 0.25 ± 0.004 µM; Top1 inhibition (in words) (human recombinant Top1): active"
"COc1ccc2c(c1)-c1c(c3ccc([N+](=O)[O-])cc3c(=O)n1CCCn1ccnc1)C2=O [Compound 52 of (B), 6-(3-(1H-Imidazol-1-yl)propyl)-8-methoxy-3-nitro-5H-indeno[1,2-c]isoquinoline-5,11(6H)-dione]",< 0.01,0.03,< 0.01,,< 0.01,< 0.01,< 0.01,0.03,+++,"Tdp1 (semiquantitative IC50 scale) (recombinant human Tdp1): (+); IC50 [1, 4]: 0.02 ± 0.0006 µM; suppression of Top1-mediated DNA cleavage at high drug concentration (human recombinant Top1; high concentration of 100 μM): slight suppression"
"CCOC(=O)CNc1ccc2c3c(n(CCCN)c(=O)c2c1)-c1ccccc1C3=O [Compound 40 of (B), Ethyl 2-[(6-(3-Aminopropyl)-5,11-dioxo-6,11-dihydro-5H-indeno[1,2-c]isoquinolin-3-yl)amino]acetate Hydrochloride]",0.44,3.05,1.75,1.69,0.93,1.68,2.25,3.12,,GI50 (SF-539): 8.91 µM
"COc1ccc2c(c1)-c1c(c3ccc([N+](=O)[O-])cc3c(=O)n1CCCN)C2=O.Cl [Compound 51 of (B), 6-(3-Aminopropyl)-5,6-dihydro-8-methoxy-3-nitro-5,11-dioxo-11H-indeno[1,2-c]isoquinoline Hydrochloride]",0.06,0.58,0.15,0.17 ± 0.017,,0.18,,0.54,++,GI50 (SF-539): 0.61 µM; IC50 (recombinant human Tdp1): 12000 to 37000 nM
"COC(=O)CCCCC(=O)Nc1ccc2c3c(n(CCCN)c(=O)c2c1)-c1ccccc1C3=O [Compound 26 of (B), Methyl 6-[(6-(3-Aminopropyl)-5,11-dioxo-6,11-dihydro-5H-indeno[1,2-c]isoquinolin-3-yl)amino]-6-oxohexanoate]",,,,2.34,,,,,(+),IC50 (recombinant human Tdp1; determined by duplicate): 37000 to 111000 nM
"CS(=O)(=O)NCCCCCCCCCCCn1c2c(c3ccccc3c1=O)C(=O)c1ccccc1-2 [Compound 89, N-(11-(5,11-Dioxo-5H-indeno[1,2-c]isoquinolin-6(11H)-yl)undecyl)-methanesulfonamide]",,,,,,,,,++,GI50 ([1]; Homo sapiens): 40 nM
"O=C(O)C(F)(F)F.O=C(O)C(F)(F)F.O=C1c2ccccc2-c2c1c1ccccc1c(=O)n2CCCNCCCNCCCn1c2c(c3ccccc3c1=O)C(=O)c1ccccc1-2 [Compound 145, Bis-1,3-{(5,6-dihydro-5,11-diketo-11H-indeno[1,2-c]isoquinoline)-6-propyl-amino}propane Bis(trifluoroacetate)]",,,,,,,,,,"GI50 ([1]; mean graph midpoint, NCI cancer cell line screen): 394 nM; Top1 inhibition (text of part A) (human recombinant Top1; semiquantitative scale relative to 1 μM camptothecin): ++++"
COc1ccc2c(c1)C(=O)c1c-2n(CCCN)c(=O)c2cc([N+](=O)[O-])ccc12 [Compound 54 of (B)],< 0.01,,< 0.01,0.02 ± 0.0008,< 0.01,,< 0.01,,,
NCCCn1c2c(c3ccc(N)cc3c1=O)C(=O)c1ccccc1-2 [Compound 62 of (B)],0.18,0.23,0.23,0.16,0.27,0.12,0.3,0.13,,GI50 (SF-539): 0.34 µM
